Consider 5 compounds from patent US20220175723A1, “METHODS AND COMPOSITIONS RELATING TO INHIBITION OF ALDEHYDE DEHYDROGENASES FOR TREATMENT OF CANCER” (THE PENN STATE RESEARCH FOUNDATION, priority 2019, published 2022).

In data set [1] the test system is total cellular ALDH activity, UACC 903 cell lysates. In words: Total cellular ALDH activity in cell lysates. Type of data set: biochemical, human. The following applies: 1 uM inhibitor, 15 minutes. The text has this:
(§1) The ALDHs reduce ROS, lipid peroxidation and toxic aldehyde accumulation, the latter of which can lead to cell damage and apoptosis as shown in FIG. 6A. Thus, inhibition of total cellular ALDH activity can increase toxic aldehydes, oxidative damage and apoptosis.

Data set [2] deals with total cellular ALDH activity, 1205 Lu cell lysates. Briefly: Total cellular ALDH activity in cell lysates. In kind it is biochemical, human. The note with it: 1 uM inhibitor, 15 minutes.
Excerpt: as §1

Another data set deals with UACC 903 cells. Briefly: Cell viability MTS assay, UACC 903. Type of data set: cell-based, human. The following applies: 100 μM, 72 hours.
The next data set concerns the target T1, ALDH3A1 (Homo sapiens, UniProt P30838).
T1 construct: purchased R & D Systems, Inc, Minneapolis, Minn., USA
T1 sequence (P30838 1-453): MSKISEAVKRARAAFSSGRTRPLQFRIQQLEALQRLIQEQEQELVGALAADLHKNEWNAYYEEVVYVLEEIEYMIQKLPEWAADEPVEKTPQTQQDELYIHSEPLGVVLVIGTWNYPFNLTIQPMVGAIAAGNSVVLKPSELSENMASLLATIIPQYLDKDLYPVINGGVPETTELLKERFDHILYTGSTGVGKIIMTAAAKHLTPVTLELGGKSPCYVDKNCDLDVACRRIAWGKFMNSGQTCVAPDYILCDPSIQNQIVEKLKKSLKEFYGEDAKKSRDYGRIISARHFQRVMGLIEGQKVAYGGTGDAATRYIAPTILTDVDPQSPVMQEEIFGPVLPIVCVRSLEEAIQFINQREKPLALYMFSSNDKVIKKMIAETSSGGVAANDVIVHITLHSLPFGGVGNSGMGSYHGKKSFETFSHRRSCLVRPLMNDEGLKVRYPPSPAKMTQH
Briefly: ALDH isoform-specific enzyme assay (NADH absorbance 340 nm). Type of data set: biochemical.

The next data set deals with T2, ALDH1A1 (Homo sapiens, UniProt P00352).
T2 construct: purchased R & D Systems, Inc, Minneapolis, Minn., USA
T2 sequence (P00352 1-501): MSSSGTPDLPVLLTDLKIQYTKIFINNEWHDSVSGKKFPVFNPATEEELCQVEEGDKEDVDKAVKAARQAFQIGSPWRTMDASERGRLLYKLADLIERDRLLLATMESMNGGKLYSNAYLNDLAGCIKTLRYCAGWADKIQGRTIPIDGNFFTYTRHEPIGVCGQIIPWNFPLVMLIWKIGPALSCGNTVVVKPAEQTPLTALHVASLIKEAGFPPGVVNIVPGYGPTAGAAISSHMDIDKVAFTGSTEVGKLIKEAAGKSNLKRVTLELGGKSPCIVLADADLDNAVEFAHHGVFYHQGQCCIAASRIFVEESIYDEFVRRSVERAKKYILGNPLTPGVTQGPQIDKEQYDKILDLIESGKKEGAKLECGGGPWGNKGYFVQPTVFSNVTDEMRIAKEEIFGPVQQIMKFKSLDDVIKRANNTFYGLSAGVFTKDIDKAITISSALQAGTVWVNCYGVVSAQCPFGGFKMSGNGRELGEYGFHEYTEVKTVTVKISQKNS
The description is as above. Type of data set: biochemical. The following applies: Study 1; read-out: IC50s ALDH1A1.

The next data set addresses T3, ALDH2 (Homo sapiens, UniProt P05091).
T3 construct: purchased R & D Systems, Inc, Minneapolis, Minn., USA
T3 sequence (P05091 18-517): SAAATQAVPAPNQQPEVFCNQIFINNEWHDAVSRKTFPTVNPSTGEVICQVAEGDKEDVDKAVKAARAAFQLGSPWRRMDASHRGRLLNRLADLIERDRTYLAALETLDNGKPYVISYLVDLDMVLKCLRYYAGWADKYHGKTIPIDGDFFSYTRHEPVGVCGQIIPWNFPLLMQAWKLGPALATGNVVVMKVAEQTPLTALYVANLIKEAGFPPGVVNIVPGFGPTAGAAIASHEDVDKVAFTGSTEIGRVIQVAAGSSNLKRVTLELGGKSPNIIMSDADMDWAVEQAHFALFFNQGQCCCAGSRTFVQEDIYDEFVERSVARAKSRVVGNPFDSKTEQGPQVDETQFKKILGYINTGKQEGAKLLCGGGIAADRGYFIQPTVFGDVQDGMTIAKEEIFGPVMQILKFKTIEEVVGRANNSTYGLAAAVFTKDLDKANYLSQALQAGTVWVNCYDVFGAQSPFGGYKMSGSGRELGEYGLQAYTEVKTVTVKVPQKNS
Described as above. Type of data set: biochemical. The note with it: Study 1; read-out: IC50s ALDH2.

For data set [3], the system named is HCT116 cells. In words: Cell cycle by propidium iodide staining with or without NAC. In kind it is cell-based, human. On the procedure: (§2) FIGS. 30A-30F. […] ROS levels were measured using DCFDA dye and compared to DMSO control. Malondialdehyde (MDA) levels were measured in colon cancer cell line HCT116 using thiobarbituric acid and compared to DMSO control (FIG. 30C). Cell survival assay was performed by MTS assay (FIG. 30D), apoptosis by Annexin-V/7-AAD (FIG. 30E) and cell cycle by propidium iodide staining in colon cancer cell line HCT116 (FIG. 30F).
(§3) Further, the effect of the addition of NAC on the antiproliferative and apoptotic activity of ALDH inhibitors was also evaluated.

For data set [4], the system named is HCT116 cells. Briefly: Cell survival MTS assay with or without NAC. In kind it is cell-based, human. Here is the method: as §2, §3
Data set [5] concerns HCT116 cells. Briefly: Apoptosis by Annexin-V/7-AAD with or without NAC. In kind it is cell-based, human. Details: dose or concentration left out as unconfirmed. The following applies: vs DMSO or 3a. On the procedure: as §2, §3
The subject of another data set is HCT116 and HT29 cells. In words: ROS assay (DCFDA), Study 2, with or without NAC. In kind it is cell-based, human.
The nature of data set [6]: Toxicity study, 14 days i.p. In kind it is in vivo, Swiss-Webster mice. The note with it: 5 mg/kg/day i.p. for 14 days, vs DMSO. On the procedure: To determine the toxicity of 3(h-l), compounds were injected i.p. into Swiss-Webster mice once daily for 14 days (Id.). Animals were monitored for changes in body weight, behavior and physical distress compared to DMSO control.

Where [7] appears, read: Study 1, read-out: IC50s ALDH3A1.

Like-named read-outs stand apart in the source and are kept apart here.

Procedure for ALDH1A1: (§4) ALDH enzyme assays were performed using a kit as described by the kit manufacturer (R & D Systems, Inc, Minneapolis, Minn., USA). Isoform-specific aldehydes were converted to their respective carboxylic acids along with conversion of NAD+ to NADH (absorbance at 340 nm). […] Similarly, 0.5 μg/mL of ALDH2 was used in the reaction with 2 mM of acetaldehyde as the substrate and 0.2 μg/mL of ALDH3A1 was used in the reaction with 1 mM of 4-nitrobenzaldehyde (4-NBA) as the substrate following addition of ALDH inhibitors.
(§5) ALDH1A1, 2 and 3A1 enzyme assays were performed as described by the manufacturer (R & D systems). Isoform-specific aldehydes were converted to their respective carboxylic acids along with the conversion of NAD+ to NADH (absorbance at 340 nm).
Procedure for ALDH2: as §4, §5
Procedure for ALDH3A1: as §4, §5
Procedure for HCT116 and HT29 cells: ROS activity was measured using DCFDA dye^51. […] Cells were incubated with 10 μM of DCFDA for 1 hour, and fluorescence was measured at 485 nm excitation and 510 nm emission. ROS levels in treated cells were compared to DMSO control.
Procedure for UACC 903 cells: Cell viability assays of UACC 903 cells transfected with siRNA, and melanoma cell lines (UACC 903, 1205 Lu, C8161.CI9, MelJuSo), FF2441 and NHEM cells treated with ALDH inhibitors were performed. For this, 5,000 cells per well were plated in a 96-well plate and incubated overnight at 37° C. in a 5% CO2 atmosphere. For the siRNA knockdown experiment, cells were incubated for another 72 hours. For the ALDH inhibitor experiments, cells were treated with agents at various concentrations and incubated for 72 hours. 20 μL of MTS reagent was then added into each well and formation of tetrazolium was measured by absorbance after 1 hour at 492 nm. IC50 values or % cells for each experimental group were measured in three independent experiments using GraphPad Prism version 7.04 (GraphPad Software, La Jolla, Calif.).
Briefly, 3,000 cells per well were plated in a 96-well plate and incubated overnight at 37° C. in a 5% CO2 atmosphere. […] 20 μL of MTS reagent was then added into each well and formation of tetrazolium was measured by absorbance after 1 hour at 492 nm. IC50 values for each experimental group were measured in 3 independent experiments using GraphPad Prism version 7.04 (GraphPad Software, La Jolla, Calif.).

With `CCOC(=O)CSc1nc2c(sc3ccccc32)c(=O)n1CCCN1CCCC1` [CM037], the “reduction of total cellular ALDH activity, UACC 903” value in data set [1] was “significantly reduced”. In addition, the “reduction of total cellular ALDH activity, 1205 Lu” value (“reduction … 1205 Lu” for short) in data set [2] was “significantly reduced”.

For the compound `CCN(CC)c1ccc(C=O)cc1` [DEAB], in the data set with UACC 903 cells, the “reduction of UACC 903 cell survival” value came out at 30%. For the same compound, in data set [1], the “reduction of total cellular ALDH activity, UACC 903” value is “significantly reduced”. The “reduction … 1205 Lu” value in data set [2] was “significantly reduced”. Further, the IC50 at ALDH3A1 (Study 1, text, read-out: IC50 ALDH3A1) is 15.1 µM; at ALDH3A1 (setting [7]) it was 15.1 µM.

With `Cc1nc2ccccc2n1S(=O)(=O)c1ccc(F)cc1` [CB7], the IC50 came out at 139 µM on ALDH1A1 and 144 µM at ALDH2.

`Br.N=C(N)SCc1ccc(CN2C(=O)C(=O)c3cc(C(F)(F)F)ccc32)cc1` [Compound 3h, 2-[4-(2,3-Dioxo-5-trifluoromethyl-2,3-dihydroindol-1-ylmethyl)benzyl]isothiourea hydrobromide]: the cell cycle effect entry with HCT116 cells [3] (HCT116) is reported as “G2/M arrest”. The “cell cycle effect on addition of NAC” value in the data set on HCT116 cells [3] (HCT116, with NAC) is “reversed”. Also, the “increase of cell killing IC50 by addition of NAC” value in the data set on HCT116 cells [4] stood at 6 fold. In addition, the “percentage of cells both Annexin-V and 7-AAD positive” value in the data set with HCT116 cells [5] is given as “significantly higher”. For the same compound, the ROS levels result in the data set on HCT116 and HT29 cells (5 μM, 24 hours, vs DMSO) is on record as “significantly increased”. In addition, the “ROS-inducing activity on addition of NAC” value in the data set with HCT116 and HT29 cells (with N-Acetyl Cysteine (NAC)) is listed as “abrogated”. Moreover, the weight loss entry in data set [6] is reported as “no significant weight loss”.

For the compound `O=C1Nc2ccccc2C1=O` [Isatin], the IC50 was determined as 15.6 µM at ALDH1A1, 5.05 µM at ALDH3A1 (setting [7]) and 169 µM on ALDH2. In data set [1], the “reduction of total cellular ALDH activity, UACC 903” value is given as “ineffective”. For the same compound, the “reduction … 1205 Lu” value in data set [2] was “ineffective”.
